Laboratory results: patent US20250302834A1, “N-ALKYL-2-SUBSTITUTED ATP ANALOGUES FOR USE AS ANTIBACTERIAL AGENT” (UNIVERSITÉ DE LIÈGE, priority 2022, published 2025)

Columns and labels:
[1] = general statement, no test described; cited from earlier work
[2] = test system: JE2 S. aureus; assay: Bacterial adhesion to fibrinogen; format: cell-based, Staphylococcus aureus; details: JE2 grown with 1 μg/ml (FIG. 6)
Method: (§1) Staphylococcus aureus JE2 (USA300 MRSA) in exponential growth phase, non-treated or treated with cangrelor at 1 μg/ml were stained with 30 μg/ml 5(6)-Carboxyfluorescein N-hydroxysuccinimide ester (Sigma-Aldrich) in phosphate-buffered saline (PBS) for 30 minutes at room temperature on a shaker. After incubation, bacteria were centrifuged for 5 minutes at 14,000×g and the supernatant was removed. Next, a washing step was performed by resuspending the bacteria in PBS and removing PBS after centrifugation (5 minutes at 14,000×g). The bacterial pellet was then resuspended in 100 μl of 6% bovine serum albumin (BSA). The stained bacteria were kept on ice until further use in the Von Willebrand factor (VWF) adhesion assay and fibrinogen (Fg) adhesion assay.
96-well plates (cellstar, greiner) were coated with human plasma fibrinogen (Fg, Merck) for 24 hours at room temperature, followed by a washing step with PBS. Next, a blocking step with 2% BSA for 1 hour was done followed by a wash step with PBS. Labelled bacteria in exponential phase were then diluted in TSB medium to obtain 10^9 CFU/ml of labelled bacteria. […] Bacterial adhesion was then quantified using a spectrophotometer (multi-mode microplate reader FilterMax F5, molecular devices) Ex.:485 nm and em.:535 nm, a surface scan of the wells was performed. […]

[3] = test system: JE2 S. aureus; assay: Bacterial adhesion to Von Willebrand factor under flow; format: cell-based, Staphylococcus aureus; details: JE2 grown with 1 μg/ml; shear rate 1000 s^-1 for 10 minutes (FIG. 5)
Method: as §1, with “assay. […]” for “assay.”
After perfusion, the coverslip was removed from the system and washed with PBS, followed by a fixation step with 4% paraformaldehyde (PFA, miliporefore, Merck) for 10 minutes. […] Confocal microscopy was performed at a 40× magnification and fluorescence intensity was measured with QuPath software (Bankhead, P. et al. QuPath: Open source software for digital pathology image analysis. Sci. Rep. 7, 1-7 (2017)). A quantification of bacteria adhesion to VWF was determined by determining the percentage of positive pixels, corresponding to the fluorescent signal and bacterial adhesion.

[4] = test system: methicillin-resistant JE2 (USA300) Staphylococcus aureus strain; assay: Haemolytic activity of culture supernatant on human red blood cells, JE2 strain; format: cell-based; details: JE2 (USA300) grown with 1 μg/mL up to stationary phase; supernatant on red blood cells 30 minutes
Method: (§2) Staphylococcus aureus strains included previously characterized infective endocarditis (IE) clinical isolate (Liesenborghs L, Meyers S, Lox M, Criel M, Claes J, Peetermans M, Trenson S, Vande Velde G, Vanden Berghe P, Baatsen P, et al. Staphylococcus aureus endocarditis: distinct mechanisms of bacterial adhesion to damaged and inflamed heart valves. Eur Heart J 2019; 40:3248-3259) or JE2 (USA300 MRSA). Bacteria were grown in Tryptic soy broth (TSB, Sigma) under agitation (200 rpm) at 37° C. Prior to all experiments, a single colony from TSA plates was used to inoculate 4 mL of TSB in 15-mL polystyrene tubes and bacteria were grown overnight. Liquid cultures were then diluted 100-fold in 20 mL of fresh TSB and aliquoted in new tubes. For tetrasodium cangrelor treatment, different concentrations of the drug were added to the corresponding tubes. Tetrasodium cangrelor was dissolved in the culture medium, i.e. Tryptic soy broth which comprises proteins and nutrients for growing bacteria, more particularly: casein, soya peptone, sodium chloride, dipotassium phosphate, dextrose, water. […]
(§3) Freshly drawn citrate anticoagulated blood from healthy volunteers was centrifugated for 15 minutes at 1,000×g. […] Haemolytic activity was determined in supernatants by measuring the absorbance at 570 nm in a spectrophotometer. […]

[5] = test system: Staphylococcus aureus IE clinical isolate; assay: Staphyloxanthin production, IE strain; format: cell-based; details: IE strain grown with 0.5 μg/mL up to exponential phase (FIG. 3)
Method: as §2
(§4) Bacteria pellets from overnight culture were resuspended in 400 μL methanol and incubated for 30 minutes at 37° C. under gentle agitation on a table shaker. […] Pigment intensity in supernatants was analyzed by measuring the absorbance at 470 nm. […]

[6] = test system: JE2 S. aureus; assay: Bacterial metabolic activity (Calscreener); format: cell-based, Staphylococcus aureus; details: 1 μg/ml, 20 μg/ml and 40 μg/ml, 15 hours (FIG. 8)
Method: (§5) A bacterial growth curve and metabolic activity profile was obtained of exponential phase JE2 bacteria following treatment with different concentrations of cangrelor 1 μg/ml, 20 μg/ml and 40 μg/ml. The bacterial growth curve was obtained via a kinetic reading using a spectrophotometer, reading every 10 minutes for 7 hours at an optical density of 595 nm with continuous shaking. The metabolic activity profile was obtained using a Calscreener™ (Symcel), which measures the metabolic response over time (15 hours) in presence of the different concentrations of cangrelor. […] While cangrelor cannot inhibit the bacterial growth of JE2, it can inhibit virulence factors production by this strain upon treatment using a clinically relevant dose of 1 μg/ml.

[7] = test system: JE2 S. aureus; assay: Bacterial growth curve; format: cell-based, Staphylococcus aureus; details: 1 μg/ml, 20 μg/ml and 40 μg/ml, 7 hours, OD 595 nm (FIG. 7)
Method: as §5

[8] = test system: JE2 S. aureus; assay: Staphyloxanthin production, JE2 strain; format: cell-based, Staphylococcus aureus; details: 1.0 μg/ml (FIG. 4)
Method: as §2, §4

[9] = intravenous bolus (30 μg/kg) followed by 4-μg/kg/min infusion; cited from earlier work
[10] = test system: Staphylococcus aureus IE clinical isolate; assay: Haemolytic activity of culture supernatant on human red blood cells, IE strain; format: cell-based; details: IE strain grown with 0.5 μg/mL up to exponential phase; supernatant on red blood cells 30 minutes
Method: as §2, §3

## CCCSc1nc(N[C@@H]2C[C@H]2c2ccc(F)c(F)c2)c2nnn([C@@H]3C[C@H](OCCO)[C@@H](O)[C@H]3O)c2n1 [Ticagrelor]
[1]
  solubility in an aqueous environment or medium: generally not soluble

## CSCCNc1nc(SCCC(F)(F)F)nc2c1ncn2[C@@H]1O[C@H](COP(=O)(O)OP(=O)(O)C(Cl)(Cl)P(=O)(O)O)[C@@H](O)[C@H]1O [cangrelor]
[2]
  bacterial adhesion to fibrinogen as compared to vehicle control: reduction
[3]
  bacterial adhesion to Von Willebrand factor under flow as compared to vehicle control: reduction
[4]
  loss of supernatant haemolytic activity as compared to vehicle control (set to 100%): complete loss
[5]
  loss of bacteria staphyloxanthin production as compared to vehicle control (set to 100%): 90%
[6]
  bacterial metabolic activity as compared to vehicle control: could not affect
[7]
  bacterial growth (AUC of growth curve) as compared to vehicle control: could not affect
[8]
  loss of bacteria staphyloxanthin production as compared to vehicle control (set to 100%): 90%

## CSCCNc1nc(SCCC(F)(F)F)nc2c1ncn2[C@@H]1O[C@H](COP(=O)(O)OP(=O)(O)C(Cl)(Cl)P(=O)(O)O)C(O)C1O (stereo partly shown) [tetrasodium cangrelor]
[9]
  steady state concentration of the drug reached in patient: 0.5 µg/mL
[10]
  loss of supernatant haemolytic activity as compared to vehicle control (set to 100%): 90%
